Measurements taken from patent US12697313B2, “Methods of treating anemia using formoterol or a pharmaceutically acceptable salt thereof” (Dana-Farber Cancer Institute, Inc., priority 2022, dated 2026).
Entries after “also recorded” stand apart in the source; their conditions may differ.

Tests used:
wild-type C57BL/6J mice = assay: FF daily i.p. in wild-type mice at steady-state (pilot study); type: in vivo
Experimental: The murine β2-adrenoreceptor has 87.08% similarity to the protein composition of the human analog. This encouraged further testing to determine whether formoterol fumarate (FF) treatment in wild-type mice under steady state or hemolytic anemia produces any alleviating effect in vivo. To address this, varying doses of FF 0.1-0.3-0.5-1.0 mg/kg or vehicle (0.3% DMSO in saline) were administered via intraperitoneal (i.p.) injection in 10-12 week old wild-type C57BL/6J mice daily for 3 weeks along with weekly submandibular cheek bleeding to analyze complete blood counts (CBC).
C57BL/6J mice were obtained from Jackson laboratories and were housed for at least 2 weeks at the Dana-Farber Cancer Institute (DFCI) animal resources facility before beginning experiments. All drug treatments have been mentioned in detail in the text.

[1] = tested on: phenylhydrazine (PHZ)-mediated stress-induced anemic mice; assay: Sublethal PHZ (60 mg/kg)-induced hemolytic anemia, male mice, FF i.p.; type: in vivo
primary human HSPCs [2] = assay: Methylcellulose colony-formation assay, primary human HSPCs; type: cell-based; conditions: n=4 healthy donors; vs DMSO; FIG. 4
Experimental: (§1) Given the involvement of β2-AR in erythropoiesis, it was hypothesized that administration of long-acting selective β2-AR agonist FF might promote erythroid differentiation. To address this, primary human HSPCs were treated with varying doses of FF (Selleckchem). […] To ascertain if FF administration plays a role further upstream in the erythroid differentiation pathway, methylcellulose colony-formation assays were performed.
After genome editing, primary human HSPCs were washed twice with 1× PBS and mixed with semi-solid methylcellulose medium (H4034 StemCell Technologies) by brief vortexing. Cells were plated at a density of 2000 per well in a 6-well plate followed by incubation in a humidified chamber at 37° C. for 14 days. Imaging of the colonies was performed using EVOS M5000 Imaging system® (ThermoFisher Scientific). The colony-forming cells were then collected by triturating the wells using staining buffer and multi-color flow cytometry was performed as previously described (Li et al. (2014) Blood 124: 3636-3645).

RPS14 KD HSPCs = assay: Erythroid differentiation in RPS14 knockdown HSPCs; type: cell-based, human; conditions: RPS14 KD HSPCs vs DMSO; FIG. 6D, FIG. 46
Text: Since RIOK2-deficient primary human HSPCs effectively model impaired erythropoiesis leading to anemia (Ghosh et la. (2022) Nat Immunol 23: 109-121), it was next investigated whether treatment with formoterol fumarate (FF) alleviates anemia in this in vitro model. To address this, RIOK2-proficient and deficient primary human HSPCs via CRISPR-Cas9 based genome-editing were generated (FIG. 6A), as previously described (Ghosh et al. (2022) Nat Immunol 23: 109-121). […] Since RPS14 deletion is reported to be MDS-genic (Ebert et al. (2008) Nature 451: 335-339; Schneider et al. (2016) Nat Med 22: 288-297), RPS14 was similarly knocked down in primary human HSPCs (FIG. 6C).
Next, to validate the specificity of FF for β2-adrenoreceptors, ADRB2 was knocked down in primary human HSPCs and treated with FF.
Primary human HSPCs were genome-edited, as previously described (Ghosh, S., Raundhal, M., Myers, S. A., Carr, S. A., Chen, X., Petsko, G. A., and Glimcher, L. H. (2022). Identification of RIOK2 as a master regulator of human blood cell development. Nat Immunol 23, 109-121).

mitochondrial biogenesis = conditions: cited from earlier work
[3] = tested on: NUP98-HOXD13 transgenic mice; assay: FF i.p. in MDS/AML mice (NUP98-HOXD13 transgenic); type: in vivo; conditions: 0.3 mg/kg thrice weekly i.p.
Experimental: FIG. 71A, FIG. 71B and FIG. 71C show FF treatment at a low dose of 0.3 mg/kg thrice weekly (i.p.) alleviates RBC parameters in PB of MDS/AML mice, such as RBCs, hemoglobin (Hb) and hematocrit (HCT%). * p<0.05, ** p <0.01, **** p<0.0001, ANOVA. n=5-7 mice per group. Veh: vehicle; LC: littermate control.

Apcmin mice = assay: FF i.p. in Apcmin mice (intestinal adenoma model that develops anemia); type: in vivo
Experimental: This is a mouse model of intestinal adenoma that develops anemia. FF treatment at a low dose of 0.3 mg/kg daily (i.p.) alleviates RBC parameters, such as (FIG. 74A) RBCs (FIG. 74B) hematocrit% (HCT%) and (FIG. 74C) hemoglobin (Hb) in Apcmin mice that spontaneously develop anemia at ~3 months age. * p<0.05, *** p<0.001, 2-way ANOVA. n=5-6 mice per group. Comparisons are shown in between Apcmin+FF versus Apcmin+Veh. Veh: vehicle; LC: littermate control mice.

[4] = tested on: ovariectomized rat models; conditions: ovariectomized rat models (Kellenberger et al. 1998); cited from earlier work
[5] = tested on: phenylhydrazine (PHZ)-mediated stress-induced anemic mice; assay: Sublethal PHZ (50 mg/kg)-induced hemolytic anemia, female mice, FF i.p.; type: in vivo
primary human HSPCs [6] = assay: Mitochondrial functions in primary human HSPCs (mtDNA genes, TMRE, MitoTracker); type: cell-based
Experimental: as §1
TMRE (T669, Invitrogen) and Mitotracker® (M22426, Life Technologies) and MitoSox® (M36008, Life Technologies) staining were performed as per the manufacturer's instructions.

[7] = 0.1/0.3 mg/kg, PHZ 60 mg/kg, FIG. 26

Structure (SMILES): COc1ccc(C[C@@H](C)NC[C@H](O)c2ccc(O)c(NC=O)c2)cc1.O=C(O)/C=C/C(=O)O [FF, (E)-but-2-enedioic acid;N-[2-hydroxy-5-[(1R)-1-hydroxy-2-[[(2R)-1-(4-methoxyphenyl)propan-2-yl]amino]ethyl]phenyl]formamide]
- body weights (wild-type C57BL/6J mice; 0.3-0.5 and 1.0 mg/kg daily i.p., FIG. 14A): mildly increased body weights of mice, but the values did not reach significance
- RBC parameters (RBC numbers, HCT %, Hb) in peripheral blood (wild-type C57BL/6J mice; 14 days of daily i.p., FIG. 14C-14E): slightly elevated; also recorded: mildly increases RBC parameters
- WBC and monocyte counts in peripheral blood (wild-type C57BL/6J mice; 14 days of daily i.p., FIG. 14F-14G): remained marginally affected; also recorded: does not affect white blood cell (WBC) or monocyte counts
- mitochondrial biogenesis in PBMCs (MitoTracker staining) (wild-type C57BL/6J mice; all doses, day 14 of daily i.p., FIG. 14B): significantly enhanced mitochondrial biogenesis; also recorded: enhances mitochondrial biogenesis
- tolerability (body weights, mobility, activeness, breathing patterns) (wild-type C57BL/6J mice; daily i.p. 0.1-0.3-0.5-1.0 mg/kg): well-tolerated
- body weights (absolute and % change) ([1]; 0.1/0.3 mg/kg i.p., PHZ 60 mg/kg, male, FIG. 22A): marked revival was similarly observed in body weights; also recorded: increases absolute body weights and % change in body weights
- viability of BM cells ([1]; 0.1/0.3 mg/kg, PHZ 60 mg/kg, FIG. 23A): marked increase in viability; also recorded: substantially increases viability
- common myeloid progenitors (CMP) and granulocyte monocyte progenitors (GMP) in BM [1, 7]: not affected
- megakaryocyte erythroid progenitors (MEP) in BM [1, 7]: specifically boosted megakaryocyte erythroid progenitors (MEP); also recorded: substantially increases MEP
- megakaryocytic progenitors (MkP) in BM ([1]; 0.1/0.3 mg/kg, PHZ 60 mg/kg, FIG. 27): no stark differences were observed in megakaryocytic progenitors; also recorded: does not affect megakaryocytic progenitors
- mitochondrial mass in PBMCs (MitoTracker staining) ([1]; Day 4 after PHZ treatment, FIG. 21): increases MitoTracker® Staining
- mitochondrial biogenesis in BM cells (MitoTracker staining) ([1]; FIG. 23B): elevated mitochondrial biogenesis; also recorded: enhances mitochondrial biogenesis
- mitochondrial superoxide production in BM cells (MitoSox staining) ([1]; FIG. 23C): reduced mitochondrial superoxide production; also recorded: significantly reduces mitochondrial superoxide production
- LS-K cells in the bone marrow ([1]; FIG. 25): enhances LS-K cells
- Pre-CFU-E cells in the BM ([1]; FIG. 28): selectively enhances Pre-CFU-E cells
- pro-erythroblasts in the BM ([1]; FIG. 29): selectively enhances pro-erythroblasts
- granulocytic myeloid progenitors (GMP) in bone marrow ([1]; FIG. 41, study not stated in legend): does not affect granulocytic myeloid progenitors (GMP)
- RBC parameters (Hb, HCT %, RBC numbers) in peripheral blood ([1]; PHZ 60 mg/kg, FIG. 22B): consistently improved RBC parameters; also recorded: significantly enhances and sustains RBC parameters
- platelet counts ([1]; PHZ 60 mg/kg, FIG. 22C): no long term impact was observed in the WBC parameters or platelets; also recorded: not statistically significant
- WBC and monocyte counts ([1]; day 4 and over 14 days, PHZ 60 mg/kg, FIG. 22C): no long term impact was observed in the WBC parameters or platelets; also recorded: increases WBC and monocyte counts in the peripheral blood after 4 days of daily i.p. injections but does not sustain the impact over 14 days
- BFU-E and CFU-E formation (primary human HSPCs [2]): significantly increased blast-forming unit-erythroid (BFU-E) and colony-forming unit-erythroid (CFU-E) formation; also recorded: enhances blast forming unit-erythroid (BFU-E) and colony forming unit-erythroid (CFU-E) formation
- erythroid differentiation (CD235a) (RPS14 KD HSPCs): significantly increased erythroid differentiation in RPS14 KD HSPCs; also recorded: increases erythroid differentiation (CD235a) in RPS14 KD HSPCs; also recorded: moderately rescues erythropoiesis
- expression of mtDNA encoded genes (mitochondrial biogenesis; Arif et al. 2019): upregulates the expression of mtDNA encoded genes
- mitochondrial oxygen consumption rates (OCR) (mitochondrial biogenesis; in vitro and ex vivo (Arif et al. 2019)): promotes mitochondrial oxygen consumption rates (OCR)
- mitochondrial biogenesis (mitochondrial biogenesis; several in vitro and in vivo models (literature)): reported to augment mitochondrial biogenesis
- RBC parameters (RBCs, Hb, HCT%) in PB ([3]; FIG. 71): elevates RBC parameters
- platelets and WBCs in peripheral blood ([3]; FIG. 72A-72B): has no impact
- apoptosis (Annexin V staining) in the bone marrow ([3]; FIG. 72C): has no impact
- erythroid progenitors in the BM ([3]; FIG. 73A): elevates erythroid progenitors
- GMP and MkP in the BM ([3]; FIG. 73B-73C): does not affect
- RBC parameters (RBCs, HCT%, Hb) (Apcmin mice; 0.3 mg/kg daily i.p., FIG. 74): elevates RBC parameters
- body weight (Apcmin mice; FIG. 75): modestly increases body weight
- effects on bone [4]: anabolic effects on bone
- body weights (absolute and % change) ([5]; 0.1/0.3 mg/kg daily i.p., female, FIG. 18A): sufficient to revive body weights; also recorded: increases absolute body weights and % change in body weights
- HCT % and RBC counts ([5]; 0.1/0.3 mg/kg, FIG. 18B): produced long-term benefits in elevating HCT % and RBC counts
- Hb production ([5]; 0.1/0.3 mg/kg, FIG. 18B): significantly enhanced Hb production
- RBC parameters (Hb, HCT %, RBC numbers) in peripheral blood ([5]; 0.1/0.3 mg/kg, FIG. 18B): enhances and sustains RBC parameters
- platelet counts ([5]; FIG. 18C): not statistically significant
- WBC and monocyte counts ([5]; day 4 and over 14 days, FIG. 18C): provided an immediate boost to WBC and monocyte counts after PHZ administration, no long term benefits were observed; also recorded: increases WBC and monocyte counts in the peripheral blood after 4 days of daily i.p. injections but does not sustain the impact over 14 days
- mitochondrial membrane potential (TMRE staining) (primary human HSPCs [6]; FIG. 5B): elevated mitochondrial mass and membrane potential; also recorded: enhances mitochondrial membrane potential
- mitochondrial mass (MitoTracker staining) (primary human HSPCs [6]; FIG. 5C): elevated mitochondrial mass and membrane potential; also recorded: increases mitochondrial mass
- expression of mitochondrial DNA encoded genes MT-ND1, MT-CytB, MT-CO1, MT-ATP6 (primary human HSPCs [6]; vs DMSO, FIG. 5A): enhanced expression of mtDNA encoded genes required for OXPHOS; also recorded: enhances expression of mitochondrial DNA encoded genes
